From ChEMBL document CHEMBL3045827, “High osmolar contrast medium causes mild oxidation in liver, bladder, and ovary tissues from rats: vitamin C has protective role” (2010)

Columns and labels:
Rattus norvegicus [1] = test: Inhibition of ionic high-osmolar contrast medium-induced oxidative stress in Rattus norvegicus Wistar albino (rat) ovary assessed as MDA level at 250 mg/kg/day administered through drinking water measured on 6th day by TBARS method (reference value: 0.986 +/- 0.323 %); type: functional, Female gonad; parameters: scale not given: the % may be the effect or the level left
Rattus norvegicus [2] = test: Inhibition of ionic high-osmolar contrast medium-induced oxidative stress in Rattus norvegicus Wistar albino (rat) bladder assessed as MDA level at 250 mg/kg/day administered through drinking water measured on 6th day by TBARS method (reference value: 1.180 +/- 0.803 %); type: functional; parameters: scale not given: the % may be the effect or the level left
Rattus norvegicus [3] = test: Inhibition of ionic high-osmolar contrast medium-induced oxidative stress in Rattus norvegicus Wistar albino (rat) liver assessed as NOS activity at 250 mg/kg/day administered through drinking water measured on 6th day (reference value: 0.208 +/- 0.031 mIU/ml); type: functional
Rattus norvegicus [4] = test: Inhibition of ionic high-osmolar contrast medium-induced oxidative stress in Rattus norvegicus Wistar albino (rat) liver assessed as NO level at 250 mg/kg/day administered through drinking water measured on 6th day by Griess reaction method (reference value: 1.082 +/- 0.359%); type: functional; parameters: scale not given: the % may be the effect or the level left
Rattus norvegicus [5] = test: Inhibition of ionic high-osmolar contrast medium-induced oxidative stress in Rattus norvegicus Wistar albino (rat) liver assessed as SOD activity at 250 mg/kg/day administered through drinking water measured on 6th day by NBT reduction method (reference value: 146.4 +/- 25.89 U/mg); type: functional
Rattus norvegicus [6] = test: Inhibition of ionic high-osmolar contrast medium-induced oxidative stress in Rattus norvegicus Wistar albino (rat) liver assessed as GSH-Px activity at 250 mg/kg/day administered through drinking water measured on 6th day (reference value: 0.056 +/- 0.019 IU); type: functional
Rattus norvegicus [7] = test: Inhibition of ionic high-osmolar contrast medium-induced oxidative stress in Rattus norvegicus Wistar albino (rat) liver assessed as catalase activity at 250 mg/kg/day administered through drinking water measured on 6th day (reference value: 119.8 +/- 13.43 IU); type: functional
Rattus norvegicus [8] = test: Inhibition of ionic high-osmolar contrast medium-induced oxidative stress in Rattus norvegicus Wistar albino (rat) liver assessed as MDA level at 250 mg/kg/day administered through drinking water measured on 6th day by TBARS method (reference value: 0.579 +/- 0.129 %); type: functional; parameters: scale not given: the % may be the effect or the level left

O=C1O[C@H]([C@@H](O)CO)C(O)=C1O [ASCORBIC ACID] showed an Activity (Rattus norvegicus [1]) of 0.762%, an Activity (Rattus norvegicus [2]) of 0.821% and an Activity (Rattus norvegicus [3]) of 0.224 mIU/ml. The Activity (Rattus norvegicus [4]) was 0.965%, the Activity (Rattus norvegicus [5]) was 193.2 U/mg and the Activity (Rattus norvegicus [6]) was 0.05 IU. It also gave an Activity (Rattus norvegicus [7]) of 118.9 IU and an Activity (Rattus norvegicus [8]) of 0.49%.
